ChEMBL document CHEMBL1144662, “Requirement of beta-alanine components in sequence-specific DNA alkylation by pyrrole-imidazole conjugates with seven-base pair recognition” (Bioorg Med Chem, 2008)
Active and inactive are the calls of the source. No cut-off for these calls is given here.

Columns and labels:
[1] = Alkylation of plasmid DNA at 5'-ACAACCA-3' site in 5'-Texas Red labeled 202-bp DNA fragment after 15 hrs
[2] = Alkylation of plasmid DNA at 5'-ACTACCA-3' site in 5'-Texas Red labeled 202-bp DNA fragment after 15 hrs
[3] = Alkylation of plasmid DNA in 5'-Texas Red labeled 202-bp DNA fragment upto 5 uM after 15 hrs
[4] = Alkylation of plasmid DNA at 5'-AGCTCCA-3' site in 5'-Texas Red labeled 202-bp DNA fragment after 15 hrs
[5] = Alkylation of plasmid DNA at 5'-AGCACCA-3' site in 5'-Texas Red labeled 202-bp DNA fragment after 15 hrs

CC(=O)Nc1cn(C)c(C(=O)Nc2cn(C)c(C(=O)Nc3cc(C(=O)NCCC(=O)Nc4cn(C)c(C(=O)NCCCC(=O)Nc5cc(C(=O)Nc6cc(C(=O)Nc7cc(C(=O)Nc8ccc9[nH]c(C(=O)N%10CC(CCl)c%11c%10cc(O)c%10ccccc%11%10)cc9c8)n(C)c7)n(C)c6)n(C)c5)n4)n(C)c3)n2)n1 (stereo unspecified)
Activity [1]: Active | Activity [2]: Active

CC(=O)Nc1cn(C)c(C(=O)Nc2cn(C)c(C(=O)Nc3cc(C(=O)Nc4cn(C)c(C(=O)Nc5cc(C(=O)NCCCC(=O)Nc6cn(C)c(C(=O)Nc7cc(C(=O)NCCC(=O)Nc8ccc9[nH]c(C(=O)N%10CC(CCl)c%11c%10cc(O)c%10ccccc%11%10)cc9c8)n(C)c7)n6)n(C)c5)n4)n(C)c3)n2)n1 (stereo unspecified)
Activity [3]: inactive

CC(=O)Nc1cn(C)c(C(=O)Nc2cn(C)c(C(=O)Nc3cc(C(=O)NCCC(=O)Nc4cn(C)c(C(=O)NCCCC(=O)Nc5cc(C(=O)NCCC(=O)Nc6cc(C(=O)Nc7ccc8[nH]c(C(=O)N9CC(CCl)c%10c9cc(O)c9ccccc%109)cc8c7)n(C)c6)n(C)c5)n4)n(C)c3)n2)n1 (stereo unspecified)
Activity [1]: Active | Activity [2]: Active

CC(=O)Nc1cn(C)c(C(=O)Nc2cn(C)c(C(=O)NCCC(=O)Nc3cn(C)c(C(=O)Nc4cc(C(=O)NCCCC(=O)Nc5cn(C)c(C(=O)Nc6cc(C(=O)NCCC(=O)Nc7ccc8[nH]c(C(=O)N9CC(CCl)c%10c9cc(O)c9ccccc%109)cc8c7)n(C)c6)n5)n(C)c4)n3)n2)n1 (stereo unspecified)
Activity [4]: Active | Activity [5]: Active

CC(=O)Nc1cn(C)c(C(=O)Nc2cn(C)c(C(=O)NCCC(=O)Nc3cn(C)c(C(=O)Nc4cc(C(=O)NCCCC(=O)Nc5cn(C)c(C(=O)Nc6cc(C(=O)Nc7cc(C(=O)Nc8ccc9[nH]c(C(=O)N%10CC(CCl)c%11c%10cc(O)c%10ccccc%11%10)cc9c8)n(C)c7)n(C)c6)n5)n(C)c4)n3)n2)n1 (stereo unspecified)
Activity [4]: Active | Activity [5]: Active

CC(=O)Nc1cn(C)c(C(=O)Nc2cn(C)c(C(=O)Nc3cc(C(=O)Nc4cc(C(=O)Nc5cn(C)c(C(=O)NCCCC(=O)Nc6cc(C(=O)Nc7cc(C(=O)Nc8cc(C(=O)Nc9ccc%10[nH]c(C(=O)N%11CC(CCl)c%12c%11cc(O)c%11ccccc%12%11)cc%10c9)n(C)c8)n(C)c7)n(C)c6)n5)n(C)c4)n(C)c3)n2)n1 (stereo unspecified)
Activity [1]: Active | Activity [2]: Active
